The values that follow are results of earlier work, collected in US20110229418A1, “Compositions and Methods of Treating and Preventing Lung Cancer” (priority 2010, published 2011).

For data set [1], the system named is lung cancer cell. The following applies: in vivo.
For data set [2], the system named is tobacco carcinogen-induced lung tumorigenesis. To be noted: mice.
For data set [3] the following is noted: patients with type 2 diabetes, compared with those that did not use metformin.
The next data set has as its system Lewis lung LLC1 cells. To be noted: mice injected with Lewis lung LLC1 cells, orally administered.
Data set [4] concerns AMP activated protein kinase (AMPK) pathway.
The test system of data set [5] is lung cancer cell. To be noted: in vitro.
The conditions of data set [6]: long-term treatment.

Read-outs that look alike come from different tables or passages of the source.

In the case of `CN(C)C(=N)N=C(N)N` [metformin], the “lung cancer cell growth” value with lung cancer cell [1] and in the data set with lung cancer cell [5] was “inhibited” each time. In addition, the “tobacco carcinogen-induced lung tumorigenesis” value in data set [2] is “prevents tobacco carcinogen-induced lung tumorigenesis”. Further, the cancer mortality entry in data set [3] is “lower cancer mortality”. For the same compound, the tumor growth entry with Lewis lung LLC1 cells (control diet) is on record as “no effect on tumor growth”; in the data set with Lewis lung LLC1 cells (high-energy diet), “reduce tumor growth”. Also, the “sensitization to ionizing radiation” value in the data set on human lung cancer cells is listed as “sensitizes human lung cancer cells to ionizing radiation”. Besides, the AMPK pathway activation result in data set [4] was “activates the AMP activated protein kinase (AMPK) pathway”. The adverse effects entry in data set [6] is listed as “few adverse effects”.
